Results as given in ChEMBL document CHEMBL6078722, “Structure-based development of N-Arylindole derivatives as Pks13 inhibitors against Mycobacterium tuberculosis” (Eur J Med Chem, 2025).
Converted amounts (≈) assume the structure as drawn. The source made the active and inactive calls. The calls are words filed in the database; no cut-off is given here.

Experiments:
[1] = Metabolic stability in human liver microsomes assessed as compound remaining after 60 mins in presence of NADPH; type: ADME, Microsome; conditions: read-out: Stability
[2] = Metabolic stability in human liver assessed as intrinsic clearance; type: ADME, tissue-based; conditions: read-out: CLH
[3] = Metabolic stability in human liver microsomes assessed as intrinsic clearance; type: ADME, Microsome; conditions: read-out: CLH
[4] = Metabolic stability in human liver microsomes assessed as half life; type: ADME, Microsome
[5] = system: Mycobacterium tuberculosis; experiment: Antimicrobial activity against Mycobacterium tuberculosis H37Rv by MABA; type: functional
[6] = system: Mycobacterium tuberculosis; experiment: Antimicrobial activity against Mycobacterium tuberculosis H37Rv by microdilution method; type: functional
[7] = system: Mycobacterium tuberculosis; experiment: Antimicrobial activity against Mycobacterium tuberculosis H37Rv; type: functional
[8] = system: Mycobacterium tuberculosis; experiment: Antimicrobial activity against Mycobacterium tuberculosis H37Rv treated with compound diluted mouse serum at 1:8 to 1:64 serial dilution by MABA; type: functional, organism-based
[9] = system: Mycobacterium tuberculosis; experiment: Bacteriostatic activity against Mycobacterium tuberculosis; type: functional
[10] = system: Mycobacterium tuberculosis; experiment: Antimicrobial activity against Mycobacterium tuberculosis H37Rv incubated for 7 days by alamar blue microplate reader assay; type: functional; conditions: 168 h, time 7 day

**Q.** Which remaining at 1 h [1] does the source give for `CC(=O)c1c(C)n(-c2ccc(C3CCNCC3)cc2)c2ccc(O)c(CN3CCCCC3)c12` here?
**A.** 11.3%

**Q.** And the CLint scaled [2]?
**A.** 60.2 mL/min/kg

**Q.** And the microsomal CLint [3]?
**A.** 66.9 µL/min/mg

**Q.** What about the half-life [4] of the same compound?
**A.** 0.345 h

**Q.** What about the MIC90 [5] of the same compound?
**A.** 0.14 µM (≈ 0.0624 µg/mL)

**Q.** For `CC(=O)c1c(C)n(-c2ccc(Br)cc2)c2ccc(O)c(CN3CCCCC3)c12`, which remaining at 1 h [1] is on record?
**A.** 47.3%

**Q.** What about the CLint scaled [2] of the same compound?
**A.** 21.5 mL/min/kg

**Q.** What about the microsomal CLint [3] of the same compound?
**A.** 23.9 µL/min/mg

**Q.** What about the half-life [4] of the same compound?
**A.** 0.967 h

**Q.** And the MIC90 [5]?
**A.** 0.28 µM (≈ 0.124 µg/mL)

**Q.** Which MIC90 [5] does the source give for `CC(=O)c1cn(-c2cccnc2)c2ccc(O)c(CN3CCC3)c12` here?
**A.** 100 µM (≈ 32.1 µg/mL)

**Q.** With `COC(=O)c1c(NC(=O)c2c(F)c(F)c(F)c(F)c2F)sc2c1CCCCC2` as the compound, how does the MIC [6] read?
**A.** 1 µM (≈ 0.419 µg/mL)

**Q.** With `CC(=O)c1ccc(-n2cc(C(C)=O)c3c(CN4CCC4)c(O)ccc32)s1` as the compound, how does the MIC90 [5] read?
**A.** 5 µM (≈ 1.84 µg/mL)

**Q.** Which results are given for `Oc1ccc2c(c(-c3nnco3)cn2-c2ccc(Br)cc2)c1CN1CCCCC1`?
**A.** remaining at 1 h [1]: 55%; CLint scaled [2]: 18.9 mL/min/kg; microsomal CLint [3]: 21 µL/min/mg; half-life [4]: 1.1 h; MIC90 [5]: 0.07 µM (≈ 0.0317 µg/mL)

**Q.** For `CC(=O)c1cn(-c2ccc(Br)cc2)c2ccc(O)c(CN3CCC3)c12`, which MIC90 [5] is on record?
**A.** 0.08 µM (≈ 0.0319 µg/mL)

**Q.** For `CC(=O)c1cn(-c2ccc(Br)cc2)c2ccc(O)c(CN3CCC(F)CC3)c12`, which MIC90 [5] is on record?
**A.** 0.28 µM (≈ 0.125 µg/mL)

**Q.** For `Cc1ccc(-n2cc(-c3nnco3)c3c(CN4CCC4)c(O)ccc32)s1`, which MIC90 [5] is on record?
**A.** 3 µM (≈ 1.1 µg/mL)

**Q.** For `Oc1ccc2c(c(-c3nnco3)cn2-c2ccc(Br)cc2)c1CN1CCCC1`, which remaining at 1 h [1] is on record?
**A.** 53%

**Q.** And the CLint scaled [2]?
**A.** 19 mL/min/kg

**Q.** What about the microsomal CLint [3] of the same compound?
**A.** 21.2 µL/min/mg

**Q.** And the half-life [4]?
**A.** 1.09 h

**Q.** And the MIC90 [5]?
**A.** 0.07 µM (≈ 0.0308 µg/mL)

**Q.** With `Oc1ccc2c(c(-c3nnco3)cn2-c2ccc(Br)s2)c1CN1CCC1` as the compound, how does the MIC90 [5] read?
**A.** 1 µM (≈ 0.431 µg/mL)

**Q.** For `CC(=O)c1cn(-c2ccc(C)s2)c2ccc(O)c(CN3CCC3)c12`, which MIC90 [5] is on record?
**A.** 0.37 µM (≈ 0.126 µg/mL)

**Q.** Which remaining at 1 h [1] does the source give for `CC(=O)c1cn(-c2ccc(-c3ccccc3)s2)c2ccc(O)c(CN3CCC3)c12` here?
**A.** 68.6%

**Q.** And the CLint scaled [2]?
**A.** 9.6 mL/min/kg

**Q.** What about the microsomal CLint [3] of the same compound?
**A.** 10.7 µL/min/mg

**Q.** What about the half-life [4] of the same compound?
**A.** 2.17 h

**Q.** What about the MIC90 [5] of the same compound?
**A.** 0.04 µM (≈ 0.0161 µg/mL)

**Q.** With `Oc1ccc2c(c(-c3nnco3)cn2-c2ccc(Br)s2)c1CN1CC2(COC2)C1` as the compound, how does the MIC90 [5] read?
**A.** 8 µM (≈ 3.79 µg/mL)

**Q.** For `COc1ccc(OC)c(-c2ccc(-c3cn(CCc4ccc(C(=O)N(C)C)cc4)nn3)cn2)c1`, which MIC [7] is on record?
**A.** 0.25 µM (≈ 0.114 µg/mL)

**Q.** Which MIC90 [5] does the source give for `Oc1ccc2c(c(-c3nnco3)cn2-c2ccc(Br)cc2)c1CN1CCOCC1` here?
**A.** 4 µM (≈ 1.82 µg/mL)

**Q.** Which MIC90 [5] does the source give for `CNC(=O)c1cn(-c2ccc(Br)s2)c2ccc(O)c(CN3CCCCC3)c12` here?
**A.** 9 µM (≈ 4.04 µg/mL)

**Q.** For `Oc1ccc2c(c(-c3nnco3)cn2-c2ccc(Br)cc2)c1CN1CCC1`, which remaining at 1 h [1] is on record?
**A.** 61.7%

**Q.** And the CLint scaled [2]?
**A.** 12.4 mL/min/kg

**Q.** And the Activity [8]?
**A.** Active

**Q.** What about the microsomal CLint [3] of the same compound?
**A.** 13.8 µL/min/mg

**Q.** What about the half-life [4] of the same compound?
**A.** 1.67 h

**Q.** What about the MIC90 [5] of the same compound?
**A.** 0.07 µM (≈ 0.0298 µg/mL)

**Q.** Which MIC90 [5] does the source give for `CC(=O)c1cn(-c2ccc(Br)cc2)c2ccc(O)c(CN3CCCC3)c12` here?
**A.** 0.3 µM (≈ 0.124 µg/mL)

**Q.** For `CC(=O)c1cn(-c2ccc(Br)s2)c2ccc(O)c(CN3CCC3)c12`, which MIC90 [5] is on record?
**A.** 0.62 µM (≈ 0.251 µg/mL)

**Q.** Which MIC90 [5] does the source give for `CC(=O)c1cn(-c2ccc(Br)cc2)c2ccc(O)c(CN3CCCCC3)c12` here?
**A.** 0.07 µM (≈ 0.0299 µg/mL)

**Q.** Which MIC90 [5] does the source give for `CC(=O)c1cn(-c2ncccn2)c2ccc(O)c(CN3CCC3)c12` here?
**A.** 99 µM (≈ 31.9 µg/mL)

**Q.** For `CC(=O)c1cn(-c2cccs2)c2ccc(O)c(CN3CCC3)c12`, which MIC90 [5] is on record?
**A.** 3 µM (≈ 0.979 µg/mL)

**Q.** For `Oc1ccc2c(c(-c3nnco3)cn2-c2ccc(Br)cc2)c1CN1CC2(COC2)C1`, which MIC90 [5] is on record?
**A.** 1 µM (≈ 0.467 µg/mL)

**Q.** Which MIC90 [5] does the source give for `Oc1ccc2c(c(-c3nnco3)cn2-c2ccc(Br)cc2)c1CN1CC(F)C1` here?
**A.** 0.56 µM (≈ 0.248 µg/mL)

**Q.** With `CC(=O)c1cn(-c2ccc(Br)cc2)c2ccc(O)c(CN3CC(F)C3)c12` as the compound, how does the MIC90 [5] read?
**A.** 1 µM (≈ 0.417 µg/mL)

**Q.** Which MIC [7] does the source give for `CCOC(=O)c1c(-c2ccccc2)oc2ccc(O)c(CN3CCC(C)CC3)c12` here?
**A.** 2.3 µM (≈ 0.905 µg/mL)

**Q.** For `CNC(=O)c1c(-c2ccc(O)cc2)oc2ccc(O)c(CC3CCNCC3)c12`, which MIC [9] is on record?
**A.** 0.06 µM (≈ 0.0228 µg/mL)

**Q.** For `CC(=O)c1cn(-c2cnccn2)c2ccc(O)c(CN3CCC3)c12`, which MIC90 [5] is on record?
**A.** 199 µM (≈ 64.2 µg/mL)

**Q.** Which MIC90 [5] does the source give for `CC(=O)c1cn(-c2ccc(Br)s2)c2ccc(O)c(CN3CC4(COC4)C3)c12` here?
**A.** 2 µM (≈ 0.895 µg/mL)

**Q.** Which MIC [10] does the source give for `O=c1cc(-c2ccccc2O)oc2ccc(O)c(CN3CCC3)c12` here?
**A.** 1.39 µM (≈ 0.449 µg/mL)

**Q.** Which MIC [10] does the source give for `O=c1cc(-c2ccc(O)cc2)oc2ccc(O)c(CN3CCC3)c12` here?
**A.** 1.39 µM (≈ 0.449 µg/mL)

**Q.** With `CC(=O)c1cn(-c2ccc(Br)s2)c2ccc(O)c(CN3CCCCC3)c12` as the compound, how does the MIC90 [5] read?
**A.** 0.58 µM (≈ 0.251 µg/mL)
